Data reported in patent publication US20100279918A1, “Chimeric Constructs Between Cancer-Homing Peptides and Cell-Penetrating Peptides Coupled to Anticancer Drugs and/or Diagnostic Agent/Agents” (Burnham Institute for Medical Research, priority 2006, published 2010).
Entries after “also recorded” stand apart in the source; their conditions may differ. Where two headings read alike, the source gives them in different places. Where a SMILES comes first, the peptide text is derived from it. Bridges are numbered along the chain shown (N, C = ends). The star is where a group is joined. Chlorambucil = O=C(CCCc1ccc(N(CCCl)CCCl)cc1)*

Tests used:
MDA-MB-231 cells = assay: Toxicity study (CellTiter-Glo); format: cell-based, human
Procedure: FIG. 13. Cytotoxicity study of Cbl and Cbl conjugated peptides in MDA-MB-231 cell line. […] (altogether 48 h). […] IC50 values were calculated using GraphPad Prism 4 software.

[1] = system: MDA-MB-435 orthotopic xenograft tumors; assay: Treatment of mice bearing MDA-MB-435 tumors with Cbl-peptide conjugates (tumor growth); format: in vivo, nude Balb/c mice; conditions: 15 μg Cbl-equivalent/mouse i.v. every other day, seven times; p<0.01 vs controls
Procedure: FIG. 26. The inhibition of MDA-MB-435 tumor growth in mice with the Cbl-CREKA-pVEC (SEQ ID NO:22) conjugates. The MDA-MB-435 orthotopic xenografted mice (8 mice/group) were systemically treated with 15 μg of Cbl equivalent of Cbl-CREKA-pVEC (SEQ ID NO:22) and of the controls.
The orthotopic xenografted breast tumors were established by injecting 1×10^6 MDA-MB-435 human breast cancer cells into the mammary fat pad of nude Balb/c mice. Treatment started when mean tumor volumes reached about 100 mm^3. Mice with size-matched tumors were randomized into five groups (eight animals per group): Cbl-CREKA-pVEC (SEQ ID NO:22), Cbl plus CREKA-pVEC, Cbl-CREKA (SEQ ID NO:1), Cbl-pVEC (SEQ ID NO:6) and PBS. Mice were treated intravenously with 15 μg of Cbl-equivalent/mouse every other day for seven times. Tumor size was measured every three days. The mice were monitored for weight loss. The animal experiments reported here were approved by the Animal Research Committee of Burnham Institute for Medical Research.

MCF-7 cells = assay: Toxicity study (CellTiter-Glo)
Procedure: FIG. 11. Cytotoxicity study of pVEC (SEQ ID NO:6) in MCF-7 cell line. Cells were exposed to different concentrations of pVEC solution in 150 μl of 1% FBS containing media and incubated for 2 h or 48 h at 37° C. The plate was cooled to room temperature, CellTiter-Glo® Reagent (150 μl) was added and the luminescence was measured. The percent of viable cells was compared to the non-treated cells.
FIG. 12. Cytotoxicity study of Cbl and Cbl conjugated peptides in MCF-7 cell line. Cells were exposed to different concentrations of Cbl, Cbl-pVEC (SEQ ID NO:6), Cbl-CREKA-pVEC (SEQ ID NO:22) and Cbl-PEGA-pVEC (SEQ ID NO:21) (0, 1, 5, 55, 100, 150, 200, 400 and 800 (only with Cbl) μM) solution in 150 μl of 1% FBS containing complete media and incubated for 3 h at 37° C. After that 150 μl of 10% FBS containing media was added and the cells were incubated additionally for 45 h at 37° C. (altogether 48 h). The plate was cooled to room temperature, CellTiter-Glo® Reagent (150 μl) was added and the luminescence was measured. The percent of viable cells was compared to the non-treated cells. IC50 values were calculated using GraphPad Prism 4 software.
MCF-7 and MDA-MB-231 cells (20 000 cells/well) were seeded in a 48 well plate two days before the experiment. The cells were exposed to drug in different concentration in full media containing 1% FBS for 3 h where after 10% FBS containing full media was added to achieve 5% FBS containing media and then incubated 45 or 69 h at 37° C. The plate was cooled to room temperature and CellTiter-Glo® Reagent (Promega) was added. The plate was incubated for 10 min at room temperature where after the luminescence was measured.

tumor mice = conditions: about 300 μg per mouse for 15 days; cited from earlier work
[2] = MDA-MB-231, 3 h in 1% FBS media, then 45 h (altogether 48 h), read-out: IC50 value (cytotoxicity)
[3] = read-out: IC50 value (cytotoxicity), MCF-7, 3 h in 1% FBS media, then 45 h (altogether 48 h)

Row | SMILES | IC50 (MDA-MB-231 cells; [2]) [µM] | inhibition of tumor growth compared with control groups [1] | IC50 (MCF-7 cells; [3]) [µM] | ED15d dose (tumor mice) [mg/kg] | IC50 (MDA-MB-231 cells; Homo sapiens, MDA-MB-231, read-out: IC50 value (cytotoxicity)) [µM] | IC50 (MCF-7 cells; Homo sapiens, MCF7, read-out: IC50 value (cytotoxicity)) [µM]
1 | CC[C@H](C)[C@H](NC(=O)[C@H](CCCNC(=N)N)NC(=O)[C@H](CCCNC(=N)N)NC(=O)[C@H](CCCNC(=N)N)NC(=O)[C@H](CC(C)C)NC(=O)[C@@H](NC(=O)[C@@H](NC(=O)[C@H](CC(C)C)NC(=O)[C@H](CC(C)C)NC(=O)[C@H](C)NC(=O)[C@H](CCCCN)NC(=O)[C@H](CCC(=O)O)NC(=O)[C@H](CCCNC(=N)N)NC(=O)[C@H](CS)NC(=O)CCCc1ccc(N(CCCl)CCCl)cc1)[C@@H](C)CC)[C@@H](C)CC)C(=O)N[C@@H](CCCNC(=N)N)C(=O)N[C@@H](CCCCN)C(=O)N[C@@H](CCC(N)=O)C(=O)N[C@@H](C)C(=O)N[C@@H](Cc1c[nH]cn1)C(=O)N[C@@H](C)C(=O)N[C@@H](Cc1c[nH]cn1)C(=O)N[C@@H](CO)C(=O)N[C@@H](CCCCN)C(N)=O [Cbl-CREKA-pVEC] (Chlorambucil-CREKALLIILRRRIRKQAHAHSK-NH2) | 8.2 | significant decrease in tumor growth; also recorded: significant inhibition of tumor growth | 10.5 | – | – | –
2 | O=C(O)CCCc1ccc(N(CCCl)CCCl)cc1 [Cbl, reference compound] | – | – | – | 15 | 164 | 128
3 | CC[C@H](C)[C@H](NC(=O)[C@H](CCCNC(=N)N)NC(=O)[C@H](CCCNC(=N)N)NC(=O)[C@H](CCCNC(=N)N)NC(=O)[C@H](CC(C)C)NC(=O)[C@@H](NC(=O)[C@@H](NC(=O)[C@H](CC(C)C)NC(=O)[C@H](CC(C)C)NC(=O)[C@@H]1CSSC[C@H](NC(=O)CCCc2ccc(N(CCCl)CCCl)cc2)C(=O)N2CCC[C@H]2C(=O)NCC(=O)N2CCC[C@H]2C(=O)N[C@@H](CCC(=O)O)C(=O)NCC(=O)N[C@@H](C)C(=O)NCC(=O)N1)[C@@H](C)CC)[C@@H](C)CC)C(=O)N[C@@H](CCCNC(=N)N)C(=O)N[C@@H](CCCCN)C(=O)N[C@@H](CCC(N)=O)C(=O)N[C@@H](C)C(=O)N[C@@H](Cc1c[nH]cn1)C(=O)N[C@@H](C)C(=O)N[C@@H](Cc1c[nH]cn1)C(=O)N[C@@H](CO)C(=O)N[C@@H](CCCCN)C(N)=O [Cbl-PEGA-pVEC] (Chlorambucil-CPGPEGAGCLLIILRRRIRKQAHAHSK-NH2; disulfide 1-9) | 37.4 | – | 29.9 | – | – | –
